# Tests used:
# GM-BMMs = assay: M1 cytokine mRNA in GM-BMMs with LipC6, NAC or both, RT-PCR; type: cell-based, C57BL/6 mice; details: 50 μM NAC, 24 hours
# Description: GM-BMMs were prepared in vitro by stimulating bone marrow derived monocytes from wild type C57BL/6 mice with 50 ng/mL GMCSF for 6 days. GM-BMMs were incubated for 24 hours with 25 μM vehicle, 25 μM LipC6, 50 μM NAC or LipC6 plus NAC. Total RNA was extracted and subjected to RT-PCR to quantitate M1 cytokines including iNOS (B), IL-12 (C), IFN-γ (D) and TNF-α (E). n=3, *=p<0.05 and **=p<0.001 using Student's t-test.
# Total RNA extraction and real-time PCR. Total RNAs were extracted using Trizol reagent (Invitrogen, Carlsbad, Calif.) according to the manufacturer's instructions. 2 μg of total RNAs were used for cDNA synthesis with High Capacity cDNA Reverse Transcription Kits (Applied Biosystems, CA). Each PCR was performed in a 20 μl reaction mixture containing SYBR Green I (Roche, Basel, Switzerland). Real-time PCR was performed with CFX96 Real-Time PCR Detection System (Bio-Rad, CA). Reactions were run in triplicate in three independent experiments. Expression data were normalized to the geometric mean of housekeeping gene 18S rRNA to control the variability in expression levels and were analyzed using the 2^ΔΔCT method.
# To further study if ROS signaling is required for LipC6-mediated modulation of macrophages, we compared the function of LipC6 and the ROS specific inhibitor N-acetyl-L-cysteine (NAC) in modulating M1 cytokine production in GMCSF-induced macrophages.
# G-BMMs and M-BMMs = assay: ROS in bone marrow-derived macrophages in vitro, ROS-Glo H2O2 luminescent assay; type: cell-based, C57BL/6 mice; details: ceramides of carbon-chain lengths 6 to 22, overnight incubation
# Description: Size-matched TBMs were randomly assigned to one of three groups: vehicle, LipC6, or no injection. Two weeks after injection, splenic leukocytes and TILs were prepared from the spleen and the perfused tumors. The cells were incubated for 45 mins at 37° C., then washed three times with media, with the remaining adherent cells being >90% CD11b positive (macrophages). Intracellular ROS were measured with Glo™ H2O2 assay. Briefly, H2O2 substrate was added to each well followed by addition of ROS-Glo™ detection solution. After incubation for 20 minutes at RT, relative luminescence was measured to assess ROS level in TAMs (A) and splenic macrophages (B). Similarly, bone marrow-derived macrophages (BMMs) were prepared in vitro by stimulating bone marrow cells from wild type C57BL/6 mice with GMCSF (G-BMMs) and MCSF (M-BMMs) for 6 days.
# G-BMMs (A) and M-BMMs (B) were prepared in vitro by stimulating bone marrow cells from wild type C57BL/6 mice with GMCSF and MCSF for 6 days. After incubation with the ceramides of different carbon-chain lengths varying from 6 to 22 overnight, the relative ROS level in G-BMMs (C) and M-BMMs (D) was measured with a luminescence assay in accordance with the manufacturer's instruction. n=3; error bars represent±SD. * p<0.05.
# Mice. […] Small tumors can be detected by MRI two months after hepatocyte inoculation. […]
Structure (SMILES),M1 cytokine production profile compared with LipC6 (GM-BMMs),suppressive effect on ROS production in BMMs (G-BMMs and M-BMMs)
"CC(=O)N[C@@H](CS)C(=O)O [NAC, N-acetyl-L-cysteine]",similar,
CCCCCCCCCCCCC/C=C/[C@@H](O)[C@H](CO)NC(=O)CCCCCCC [C8-ceramide],,suppressive effect
"CCCCCCCCCCCCC/C=C/[C@@H](O)[C@H](CO)NC(=O)CCCCC [C6-ceramide, N-hexanoyl-D-erythro-sphinogosine]",,suppressive effect
